Measured values as given in patent publication US7169568B2, “Method for screening molecules that exert a neurotrophic effect through activation of neurotrophin receptors” (New York University, priority 2000, dated 2007).
Where no end group is shown, it is not given here.

System: TrkA receptors
Experiment: TrkA receptor phosphorylation in primary E18 basal forebrain neurons (immunoprecipitation, anti-phosphotyrosine Western blot)
Format: cell-based, rat
Conditions: 10 nM, 2 hours
Procedure: Primary cultures of E18 basal forebrain neurons were prepared as described in the Materials and Methods section of Example 2 and treated with PACAP38 (10 nM) or NGF (10 ng/ml) for various times. Activation of TrkA receptors was assessed by immunoprecipitation and Western blotting with anti-phosphotyrosine antibody.
Immunoprecipitated and Immunoblotting. PC12 (615) cells were maintained in DMEM containing 10% FBS supplemented with 100 units/ml penicillin, 100 μg/ml streptomycin, and 2 mM glutamine plus 200 μg/ml G418. Cells were placed in serum free medium overnight before experiments. Cell lysates from PC12(615) cells, or basal forebrain cells were incubated in lysis buffer (1% Nonidet P-40) for 4 hrs to overnight at 4° C. with anti-pan-Trk polyclonal antibody followed by incubation with protein A-Sepharose beads. Equivalent amounts of protein were analyzed for each condition. The beads were washed five times with lysis buffer, and the immune complexes were boiled in SDS-sample buffer and loaded on SDS-PAGE gels for immunoblot analysis. The immunoreactive protein bands were detected by enhanced chemiluminescence (Amersham Pharmacia).
Basal Forebrain Cell Cultures. […] Cells were counted and plated on culture wells coated with 0.01 mg/ml poly-D-lysine overnight. […]

## PACAP27: 27 amino acid form of PACAP (HSDGIFTDSYSRYRKQMAVKKYLAAVL; ends and bridges not checked; UniProt P18509 132-158, looked up, fragment)
  Phosphorylation of TrkA receptors: gave rise to phosphorylated TrkA receptors
